# Article PMC3034713, “Targeting Vascular NADPH Oxidase 1 Blocks Tumor Angiogenesis through a PPARα Mediated Mechanism” (PLoS ONE, 2011)
# Columns and labels:
# NOX2 = biological target: T1, NOX2 (Homo sapiens, UniProt P04839); assay: NOX inhibition in cell free assay, membranes from NOX2 expressing PMN cells (Amplex Red ROS); type: biochemical
# T1 construct: Membranes from NOX2 expressing PMN cells; endogenous in cells; host or cells: PMN cells
# T1 sequence (P04839 2-570 limits assumed): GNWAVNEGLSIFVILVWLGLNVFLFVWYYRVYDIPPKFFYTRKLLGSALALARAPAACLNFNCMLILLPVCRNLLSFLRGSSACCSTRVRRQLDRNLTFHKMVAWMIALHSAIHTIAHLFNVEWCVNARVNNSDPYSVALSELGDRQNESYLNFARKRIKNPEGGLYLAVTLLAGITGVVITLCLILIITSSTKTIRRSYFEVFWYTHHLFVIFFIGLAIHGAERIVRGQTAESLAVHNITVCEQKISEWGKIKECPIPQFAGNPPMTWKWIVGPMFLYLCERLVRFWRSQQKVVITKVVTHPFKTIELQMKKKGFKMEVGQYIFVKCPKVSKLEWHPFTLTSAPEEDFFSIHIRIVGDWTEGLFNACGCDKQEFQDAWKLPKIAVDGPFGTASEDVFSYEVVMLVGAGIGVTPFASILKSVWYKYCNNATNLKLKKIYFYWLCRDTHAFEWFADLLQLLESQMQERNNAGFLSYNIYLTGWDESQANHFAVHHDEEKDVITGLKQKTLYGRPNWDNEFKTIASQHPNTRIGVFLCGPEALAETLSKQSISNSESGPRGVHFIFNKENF
# T1 sequence (P13498 2-195 partner limits assumed): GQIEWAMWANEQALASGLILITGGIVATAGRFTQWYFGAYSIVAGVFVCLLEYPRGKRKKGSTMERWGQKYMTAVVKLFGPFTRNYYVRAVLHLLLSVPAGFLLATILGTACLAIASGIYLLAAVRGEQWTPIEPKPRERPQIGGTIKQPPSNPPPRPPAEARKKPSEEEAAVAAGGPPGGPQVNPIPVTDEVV
# Procedure: Membranes from NOX2 expressing PMN cells or from cells overexpressing NOX1 or NOX4 were prepared as previously described. After resuspension in sonication buffer (11% sucrose, 120 mM NaCl, 1 mM EGTA in PBS, pH 7.4 for NOX4-expressing cells) or in relax buffer (10 mM Pipes, 3 mM NaCl, 3.5 mM MgCl2, 0.1 M KCl, pH 7.4), cells were broken by sonication and centrifuged (200 g, 10 min). The supernatant was loaded onto a 17/40% (w/v) discontinuous sucrose gradient and centrifuged (150,000 g for 30 min). Membrane fractions were collected and stored at −80°C. ROS production measurements of membranes expressing different NOX subunits was determined as previously described using the Amplex Red method (Invitrogen).
# [1] = test system: murine and human endothelial cells (MLEC, HUVEC, mouse endothelioma); assay: ROS measurement with DHE in endothelial cells stimulated with VEGF or bFGF; type: cell-based; conditions: 10 µM
# Procedure: Endothelial cells were seeded on glass slides and stained with dihydroethidium (DHE). Images were captured with an inverted microscope and analyzed with Metafluor imaging software (MDS Analytical Technologies). Quantification was performed by measuring the fluorescence intensity of over minimum 50 endothelial cells per slide.
# MLEC [2] = assay: Wound healing assay (endothelial cell migration); type: cell-based, mouse
# Procedure: Wound healing assay was performed as described previously. Briefly, endothelial cells were plated in Matrigel (Becton Dickinson) precoated 96 wells plates. One day after plating the cell monolayer was scratched to make a regular wound. Cells were allowed to migrate overnight. Migration area was then measured and calculated using the Metamorph program (MDS Analytical Technologies).
# MLEC [3] = assay: Endothelial cell sprouting assay (tube-like structure formation, 3D culture); type: cell-based, mouse; conditions: MLEC, 10 µM
# Procedure: Sprouting assay was performed as described previously. Briefly, endothelial cells were plated in 96 well plates at 8,000 cells per well in a 3D fibrin gel. Above the gel, 10% FCS containing DMEM was complemented with 200 KIU/ml of Aprotinin (Sigma). Length of branches was evaluated using the Metamorph program. Results are expressed in mm of skeleton length/number of cells.
# B16F0 tumors = assay: Tumor growth assay, B16F0 injected subcutaneously; type: in vivo, mice; conditions: 40 mg/kg/day oral for 8 days
# Procedure: 5. 10^5 of LLC1 or B16F0 were injected subcutaneously on the back of mice. Mice were treated with NOX inhibitor, GKT136901 or vehicle (Carboxymethyl-cellulose, CMC) at 40 mg/kg everyday per os or i.p with anti-VEGFR2 antibody (DC101) at 0.8 mg every 2 days. When the control tumor reached approximately 1 cm in length, mice were sacrificed and the tumor excised, weighed and frozen. Frozen sections of tumors were stained with anti-PECAM-1 antibody (rat monoclonal, [74]).
# LLC1 = assay: Tumor cell apoptosis (AnnexinV/PI staining); type: cell-based; conditions: 10 μM, 24h
# Procedure: Supplementary file pone.0014665.s008.tif: Figure S7 Effect of GKT 136901 on tumor cells. a. LLC1 and B16F0 cell proliferation was measured by EdU incorporation and propidium iodide staining of DNA content, 24h after incubation with 10 μM of GKT136901. b. LLC1 apoptosis was measured by AnnexinV/PI staining after 24h of incubation with 10 μM of GKT136901. c. ROS levels produced by LLC1 are inhibited by GKT136901. ROS production was quantified by DHE substrate 1h after incubation with 10 μM of the inhibitor. *** p<0.001 (student t-test). (6.11 MB TIF) Click here for additional data file.
# xanthine oxidase = xanthine oxidase (Homo sapiens, UniProt P47989); assay: Pharmacological profiling (Cerep), Table S1
# Chain of xanthine oxidase (P47989 whole entry, species assumed): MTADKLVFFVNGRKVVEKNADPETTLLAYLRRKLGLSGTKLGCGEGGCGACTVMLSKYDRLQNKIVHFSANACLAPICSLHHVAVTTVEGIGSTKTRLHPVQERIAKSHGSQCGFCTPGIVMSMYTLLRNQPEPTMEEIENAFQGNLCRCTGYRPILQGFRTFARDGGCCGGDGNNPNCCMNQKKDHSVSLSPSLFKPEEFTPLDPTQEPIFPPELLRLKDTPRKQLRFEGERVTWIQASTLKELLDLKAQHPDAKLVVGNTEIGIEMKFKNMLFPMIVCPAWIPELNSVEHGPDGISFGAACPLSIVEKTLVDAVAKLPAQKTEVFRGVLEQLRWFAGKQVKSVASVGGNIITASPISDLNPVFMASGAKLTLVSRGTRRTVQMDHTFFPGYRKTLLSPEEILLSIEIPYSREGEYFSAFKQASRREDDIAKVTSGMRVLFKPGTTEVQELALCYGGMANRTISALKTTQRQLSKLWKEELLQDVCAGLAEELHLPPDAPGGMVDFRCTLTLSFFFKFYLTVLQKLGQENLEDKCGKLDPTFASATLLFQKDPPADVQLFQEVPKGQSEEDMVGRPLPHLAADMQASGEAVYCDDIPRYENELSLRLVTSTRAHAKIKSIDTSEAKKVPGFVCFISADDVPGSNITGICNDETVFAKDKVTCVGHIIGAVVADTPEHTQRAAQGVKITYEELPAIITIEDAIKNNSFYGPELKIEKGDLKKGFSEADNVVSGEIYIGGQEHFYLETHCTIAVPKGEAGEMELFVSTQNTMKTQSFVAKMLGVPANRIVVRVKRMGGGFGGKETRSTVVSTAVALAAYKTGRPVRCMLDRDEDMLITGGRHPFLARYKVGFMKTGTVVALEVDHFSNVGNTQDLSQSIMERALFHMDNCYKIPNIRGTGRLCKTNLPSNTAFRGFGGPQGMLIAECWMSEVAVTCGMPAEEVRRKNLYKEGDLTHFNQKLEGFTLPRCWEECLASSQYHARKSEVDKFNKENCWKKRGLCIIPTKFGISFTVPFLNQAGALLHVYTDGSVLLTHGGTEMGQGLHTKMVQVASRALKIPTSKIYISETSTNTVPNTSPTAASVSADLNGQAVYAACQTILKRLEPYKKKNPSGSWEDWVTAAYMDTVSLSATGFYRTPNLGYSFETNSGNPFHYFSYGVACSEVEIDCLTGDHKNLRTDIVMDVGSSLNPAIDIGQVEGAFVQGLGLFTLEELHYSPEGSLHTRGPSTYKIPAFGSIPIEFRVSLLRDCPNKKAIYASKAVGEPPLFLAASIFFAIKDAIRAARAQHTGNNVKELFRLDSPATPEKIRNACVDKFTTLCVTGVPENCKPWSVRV
# eNos = eNos (Homo sapiens, UniProt P29474); assay: Pharmacological profiling (Cerep), Table S1
# MAO-B = MAO-B (Homo sapiens, UniProt P27338); assay: Pharmacological profiling (Cerep), Table S1
# Chain of MAO-B (P27338 whole entry, species assumed): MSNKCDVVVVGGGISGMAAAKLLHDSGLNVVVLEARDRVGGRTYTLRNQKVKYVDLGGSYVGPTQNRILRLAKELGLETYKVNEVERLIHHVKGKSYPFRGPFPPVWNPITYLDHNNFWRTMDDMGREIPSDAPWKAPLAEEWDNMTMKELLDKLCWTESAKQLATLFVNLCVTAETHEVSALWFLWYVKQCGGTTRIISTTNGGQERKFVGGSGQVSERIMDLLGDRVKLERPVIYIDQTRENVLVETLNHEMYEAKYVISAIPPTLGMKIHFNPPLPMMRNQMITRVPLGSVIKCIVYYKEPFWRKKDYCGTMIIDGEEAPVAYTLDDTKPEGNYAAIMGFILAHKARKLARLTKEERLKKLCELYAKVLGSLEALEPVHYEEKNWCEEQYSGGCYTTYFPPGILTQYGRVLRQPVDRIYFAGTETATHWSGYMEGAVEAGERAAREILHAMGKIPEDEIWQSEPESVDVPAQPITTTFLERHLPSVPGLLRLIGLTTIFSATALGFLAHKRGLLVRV
# PI3K a, b, d, g = assay: Pharmacological profiling (Cerep), Table S1
compound,measurement,setting,value
Cc1c2c(=O)n(-c3ccccc3Cl)[nH]c2cc(=O)n1Cc1ccccn1 [GKT136901],potency on NOX2 relative to NOX1 and NOX4,NOX2,ten-fold lower
same,extent of inhibition of oxidase activity of NOX2,NOX2; Figure S2,only a partial effect
same,Ki,"NOX2; cell-free, membranes from NOX2 expressing PMN cells",1530 ± 90 nM
same,ROS induction after VEGF or bFGF stimulation,[1],did not induce ROS
same,endothelial cell migration,"MLEC [2]; MLEC, 10 µM",inhibition
same,endothelial cell migration or invasion in PPARα-deficient cells,"MLEC [2]; PPARα-deficient endothelial cells, data not shown",did not affect
same,tube formation,MLEC [3],inhibition
same,"tumor vascularization (PECAM-1), vehicle = 100%",B16F0 tumors; B16F0 in PPARα deficient mice,98% ±24
same,"tumor vascularization (PECAM-1), vehicle = 100%",B16F0 tumors; B16F0 in WT mice,64% ±14
same,tumor cell apoptosis in vitro,LLC1,did not interfere
same,% Inhibition at 10 µM,xanthine oxidase,5%
same,% Inhibition at 10 µM,eNos,6%
same,% Inhibition at 10 µM,MAO-B,0%
same,% Inhibition at 10 µM,"PI3K a, b, d, g",0%
